Tests used:
MCF-7 cells = test: MTT cell viability assay, MCF-7; assay type: cell-based, human; details: Homo sapiens, MCF7, 48 h, read-out: Growth (%) MCF-7
Protocol: (§1) The cell viability assay of each compound was carried out using the MTT assay. Each compound was dissolved in dimethyl sulfoxide (DMSO) at a concentration of 0.01 M. Serial dilutions were prepared with a non-supplemented culture medium. The effect of each compound on the cell viability was determined at two different concentrations (10 and 50 µM) in MCF-7, HTB-54, and HT-29 cells. In addition, the selected compounds were tested at six different concentrations between 0.1–100 µM in MCF-7, T47D, H1299, HTB-54, and 184B5 cells.
(§2) Briefly, 1 × 10^4 tumor cells/well or 2 × 10^4 non-tumorigenic cells/well were grown in 96-well plates for 12 h. Then, these cells were incubated with either DMSO (control) or a different concentration of each of the tested compounds for 48 h. Three hours before the termination point, 20 µL of MTT were added to measure the cellular viability. The resultant formazan crystals were dissolved in 50 µL of DMSO, and the absorbance was measured at 570 and 630 nm. The results are expressed as IC50, the half maximal inhibitory concentration. This value was calculated using OriginPro 8.5.1. software (OriginLab, Northampton, MA, USA) by nonlinear curve fitting. Furthermore, the selectivity index (SI) was calculated as the ratio of the IC50 values determined for the non-malignant and the tumor cells (IC50 (184B5)/IC50 (MCF-7). The data were obtained from at least three independent experiments performed in quadruplicates.

HTB-54 cells = test: MTT cell viability assay, HTB-54; assay type: cell-based; details: Homo sapiens, HTB-54, 48 h, read-out: Growth (%) HTB-54
Protocol: as §1, §2

HT-29 cells = test: MTT cell viability assay, HT-29; assay type: cell-based; details: Homo sapiens, 48 h, read-out: Growth (%) HT-29
Protocol: as §1, §2

| SMILES | activity at 10 µM (MCF-7 cells) [%] | activity at 50 µM (MCF-7 cells) [%] | activity at 10 µM (HTB-54 cells) [%] | activity at 50 µM (HTB-54 cells) [%] | activity at 10 µM (HT-29 cells) [%] | activity at 50 µM (HT-29 cells) [%] |
| --- | --- | --- | --- | --- | --- | --- |
| O=C(NC(=[Se])Nc1ccccc1)c1cccs1 [Compound 5a] | 70.3 | 27.4 | 76.8 | 43.7 | 73.5 | 39 |
| Cc1ccc(NC(=[Se])NC(=O)c2cccs2)cc1 [Compound 5b] | 64.2 | 17.5 | 66.8 | 66.7 | 82.8 | 36.8 |
| COc1ccc(NC(=[Se])NC(=O)c2cccs2)cc1 [Compound 5c] | 90.7 | 11.8 | 85 | 60.2 | 57.5 | 34.6 |
| O=C(NC(=[Se])Nc1ccc(Cl)cc1)c1cccs1 [Compound 5e] | 77.6 | 20.8 | 73.2 | 58.1 | 78.1 | 37.8 |
| Cc1ccc(NC(=[Se])NC(=O)c2ccco2)cc1 [Compound 6b] | 64.9 | 5.8 | 73 | 1.6 | 87.6 | 48.4 |
| COc1ccc(NC(=[Se])NC(=O)c2ccco2)cc1 [Compound 6c] | 70 | 13.1 | 74.2 | 3.8 | 74.5 | 35.9 |
| O=C(NC(=[Se])Nc1ccc(C(F)(F)F)cc1)c1ccco1 [Compound 6d] | 71.7 | 11.9 | 59.4 | 4.6 | 81.5 | 18.7 |
| O=C(NC(=[Se])Nc1ccc(Cl)cc1)c1ccco1 [Compound 6e] | 62.7 | 11.2 | 84.1 | 4 | 75.2 | 31.1 |
| COc1ccc(NC(=[Se])NC(=O)C23CC4CC(CC(C4)C2)C3)cc1 [Compound 7c] | 91.8 | 24.3 | 98.4 | 48.3 | 59.6 | 34 |
| O=C(NC(=[Se])Nc1ccc(C(F)(F)F)cc1)C12CC3CC(CC(C3)C1)C2 [Compound 7d] | 87.9 | 25.3 | 92.9 | 79.8 | 49.5 | 29.6 |
| O=C(NC(=[Se])Nc1ccc(Cl)cc1)C12CC3CC(CC(C3)C1)C2 [Compound 7e] | 83.9 | 39 | 111 | 36.4 | 53.5 | 45.9 |
| O=C(/C=C/c1ccccc1)NC(=[Se])Nc1ccccc1 [Compound 8a] | 75.8 | 15.3 | 65.2 | 49.7 | 98.6 | 34.2 |
| O=C(C=Cc1ccccc1)NC(=[Se])Nc1ccc(C(F)(F)F)cc1 [Compound 8d] | 91.1 | 18.5 | 90 | 41.1 | 76 | 37.3 |
| O=C(C=Cc1ccccc1)NC(=[Se])Nc1ccc(Cl)cc1 [Compound 8e] | 69.6 | 11.8 | 76.1 | 31.2 | 85.2 | 40.6 |
| O=C(NC(=[Se])Nc1ccccc1)c1cc2ccccc2s1 [Compound 9a] | 64.9 | 43.4 | 66.9 | 3.3 | 62 | 28.6 |
| Cc1ccc(NC(=[Se])NC(=O)c2cc3ccccc3s2)cc1 [Compound 9b] | 76.8 | 62.8 | 79 | 19 | 64.3 | 36.2 |

— article PMC7023466, “Novel N,N′-Disubstituted Acylselenoureas as Potential Antioxidant and Cytotoxic Agents” (Antioxidants, 2020)
